Experimental data as given in US20200147149A1, “COMPOSITIONS AND METHODS FOR THE MODULATION OF GUT SENSORY CELLS” (Duke University, priority 2017, published 2020).
“Also recorded” adds a separate entry of the source.

Columns and labels:
[1] = test system: intestinal CCK enteroendocrine cells; test: Calcium imaging (GCaMP6s) of enteroendocrine cells in CckCRE_tdTomato intestinal organoids; assay type: cell-based, mouse; settings: n=3
Protocol: (§1) For neurons, Phox2bCRE_GCaMP6s (n=3) nodose neurons were dissociated and plated. Nodose ganglia were dissected and digested in Liberase (Roche, 5401054001). Neurons were washed and filtered through a 70 μm cell strainer, then plated on 12 mm coverslips and placed in an incubator overnight. Cells were imaged 1-2 days later. Coverslips were placed in the recording chamber of a Zeiss Examiner Z1 and imaged with a Hamamatsu camera (Orca-flash4.0; C11440) using the Zeiss ZEN software package. For enteroendocrine cells, CckCRE_tdTomato organoids with transduced with ΔG-rabies-GCaMP6s. Organoids were imaged using multi photon microscopy 3-4 days after transduction. Imaging buffer (in mM: 140 NaCl, 5 KCl, 2 CaCl2, 2 MgCl2, 10 HEPES) was continuously perfused over the coverslips. […] Images were analyzed with Fiji ([…]), and cell traces were plotted with Matlab.

[2] = test system: nodose neurons; test: Calcium imaging of dissociated Phox2bCRE_GCaMP6s nodose neurons; assay type: cell-based, mouse
Protocol: as §1

[3] = test system: nodose neurons; test: Patch-clamp electrophysiology of nodose neurons cultured alone; assay type: cell-based, mouse; settings: 10-20 mM D-glucose
[4] = test system: vagal nodose neurons connected to enteroendocrine cells; test: Patch-clamp electrophysiology of nodose neurons co-cultured with enteroendocrine cells; assay type: cell-based, mouse; settings: D-glucose (10 mM); for excitatory postsynaptic potentials and action potentials in connected neurons: co-culture
Protocol: The small intestines of CckGFP and CckCRE_ChR2-tdTomato mice were dissected and flushed twice with cold PBS. The intestine was cut open lengthwise and cut again into ˜1 cm pieces. Tissue pieces were incubated with 3 mM EDTA at 4° C. for 15 minutes then at 37° C. for 15 minutes. New cold PBS was added and villi and crypts were mechanically detached. Villi and crypts were spun down and further digested in Collagenase and Dispase. Cells were spun down and re-suspended in L-15 media with 5% FBS and DNase to prevent cell clumping. Cells were passed through a 70 μm then 40 μm cell strainer to isolate single cells. Then cells were sorted using Fluorescence Activated Cell sorting (BD FACSAria) selecting for GFP fluorescence cells. Cells were sorted into culture media: 10 μl/ml Glutamax, 10 μl/ml HEPES, 20 μl/ml Penicillin-Streptomycin, 10 μl/ml N2 supplement, 20 μl/ml B27 supplement, 0.25 μl/ml EGF, 0.5 μl/ml Noggin, 1 μl/ml r-Spondin and 1 μl/ml NGF in Advanced DMEM/f12. Sorted cells were plated on Matrigel coated 12 mm coverslips at a concentration of ˜8-10 k enteroendocrine cells per coverslip. Nodose neurons were dissected and incubated with Liberase digestion enzyme. Enzyme was washed off and replaced with media. Single cells were dissociated by mechanical force and filtered through a 70 μm cell strainer. Neurons in media were plated evenly on up to 8 coverslips with enteroendocrine cells. Patch-clamp electrophysiology was performed 1-5 days after plating.
Enteroendocrine cells and nodose neurons were co-cultured as described above. Co-culture coverslips were placed in the recording chamber filled with extracellular solution. Recordings were carried out at room temperature using a MultiClamp 700B amplifier (Axon Instruments), digitized using a Digidata 1550A (Axon Instruments) interface, and pClamp software (Axon Instruments) for data acquisition. Data was filtered at 1 kHz and sampled at 10 kHz. CCK-producing enteroendocrine cells were identified by GFP expression and neurons by their morphology and lack of fluorescence. Recordings were made using borosilicate glass pipettes pulled to ˜3.5 MΩ resistance [DVB4]. Extracellular solution contained (in mM): 140 NaCl, 5 KCl, 2 CaCl2, 2 MgCl2, 10 HEPES, pH 7.4 (300-305 mOsmol). For voltage-clamp recordings, intracellular solution contained (in mM): 140 CsF, 10 NaCl, 0.1 CaCl2, 2 MgCl2, 1.1 EGTA, 10 HEPES, 10 sucrose (pH, 7.25, 290-295 mOsmol). For current-clamp recordings, intracellular solution contained (in mM): 140 KCl, 0.5 EGTA, 5 HEPES, 3 Mg-ATP, 10 sucrose (pH, 7.25, 290-295 mOsmol). Neurons were held at −70 mV for 5 min after patching in voltage-clamp mode (to stabilize cells), and then switched to the current-clamp mode. At the resting membrane potential, cell properties such as input resistance, and spike threshold were determined using 200 ms steps from −40 pA to 100 pA in 20 pA increment. […] After glucose exposure, neurons were tested with a current or voltage pulse to confirm the health of the cell. For glutamate receptor blocker experiments, the […]® Micro-perfusion system (Automate Scientific, Inc.) was used. Once the neuron was patched, the […]® nozzle was brought to within 100 μm of the cell, while extracellular solution was perfusing. Kynurenic acid (3 mM) was perfused, then washed for 5 minutes after and the neuron was tested again. EPSC responses were recorded for 1 second after light stimulation. Data are presented as the mean±S.E.M. and significance was determined using a two-tailed Student's t test.

[5] = test system: iGluSnFR-HEK cells; test: iGluSnFR-HEK cells cultured alone, multiphoton imaging; assay type: cell-based; settings: D-glucose 40 mM
Protocol: HEK 293/17 cells (ATCC CRL-11268) were maintained in DMEM (Gibco 11965) supplemented with 10% FBS (Corning 35-010-CV), Glutamax, and non-essential amino acids (both Gibco). Cells were transfected with 1 ug plasmid pCMV(MinDis) iGluSnFR (Addgene 41732) using 1 ul Lipofectamine 2000 in Optimem (Gibco) in 24-well plates.
The 5.2 Kb iGluSnFR (pCMV(MinDis).iGluSnFR was a gift from Loren Looger; Addgene plasmid #41732) was moved to the zeocin resistant backbone of Addgene #51694 (DRH296: FCK-Optopatch2 was a gift from Adam Cohen) as a NdeI+XhoI fragment. The resulting plasmid (pMEK8) was transfected into HEK 293/17 cells (ATCC CRL-11268) using 1 μl Lipofectamine 2000/ug DNA. Cells were maintained in DMEM (Gibco 11965) supplemented with 10% FBS (Corning 35-010-CV), Glutamax, non-essential amino acids (both Gibco) and 3 μl/ml zeocin ([…], Invitrogen).
CckCRE_tdTomato enteroendocrine cells were isolated as described above. Isolated cells were mixed with iGluSnFR-HEK cells at a ratio of 10:1, then plated on 1% Matrigel coated coverslips. Control iGluSnFR-HEK cells were plated alone. Cells were incubated for 12-18 hours before imaging. Coverslips were imaged using a multiphoton microscopy system (Bruker Ultima IV with a Chameleon Vision II tunable laser). Imaging frames were captured at 1.876 fps, using 920 nm light. Imaging series were analyzed using Fiji (ImageJ), and cell traces were plotted with Excel.

[6] = 20 mM D-glucose, mice=3, cells=246

O=C[C@H](O)[C@@H](O)[C@H](O)[C@H](O)CO [D-glucose]
magnitude of the sugar response as percent fluorescence of the KCl response ([1]; 20 mM D-glucose, 40 mM KCl control): 56.0±20% | calcium transients, percent of the KCl control response ([1]; D-glucose (10 mM) as printed): 56.0%±20.0 | percent of Fast Blue positive nodose neurons (innervating small intestine) that did not respond ([2]; 20 mM D-glucose, mice=2, cells=73): 100% | percent of nodose neurons that did not respond [2, 6]: 97.3±1.9% | percent of nodose neurons that responded [2, 6]: 2.7±1.9% | calcium transients in dissociated nodose ganglia neurons ([2]; D-glucose (10 mM) as printed, n=246 cells from 3 mice): did not elicit calcium transients | calcium response in Fast Blue labeled nodose neurons ([2]; D-glucose (20 mM)): no calcium response was observed | excitatory currents / action potentials in nodose neurons cultured alone [3]: neither excitatory currents nor action potentials were observed | excitatory currents / action potentials in nodose neurons cultured alone ([3]; listed as glucose): did not activate | excitatory postsynaptic potentials and action potentials in connected neurons [4]: evoke excitatory postsynaptic potentials and action potentials | excitatory postsynaptic potentials and action potentials in connected neurons ([4]; listed as glucose): evoked EPSCs; also recorded: induced excitatory post-synaptic potentials and action potential spikes | action potentials in the connected neurons (average) ([4]; current-clamp, n=5 pairs): 2±0.32 | average current of the excitatory post-synaptic potentials (EPSPs) ([4]; voltage-clamp, n=6): 61.65±15.21 pA | average frequency of the excitatory post-synaptic potentials ([4]; voltage-clamp, n=6): 0.86±0.17 Hz | fluorescence response of iGluSnFR-HEK cells cultured alone [5]: did not respond | fluorescence response of iGluSnFR-HEK cells cultured alone ([5]; listed as Dglucose): not
